No end group written: not given here.

Here are results for one substance from paper PMC7284870, “Antimicrobial Peptides from Rat-Tailed Maggots of the Drone Fly Eristalis tenax Show Potent Activity against Multidrug-Resistant Gram-Negative Bacteria” (Microorganisms, 2020).

Data set [1] relates to HepG2 cells. Description: Cytotoxicity (ATP quantification and neutral red uptake). As to the method:
The cytotoxicity of the AMPs was determined in 96-well microtiter plates with an assay volume of 200 µL. The peptides were dissolved in PBS and a 1:2 dilution series in DMEM-F12 medium (supplemented with 1% nonessential amino acids, 1% sodium pyruvate, and 5% heat-inactivated fetal calf serum) was prepared in nine steps to produce test concentrations of 400, 200, 100, […], 12.5, 6.25, 3.13, and 1.56 μM (1655–6.46 µg/mL for EtCec1-a, 1713–6.68 µg/mL for EtCec2-a, 1622–6.33 µg/mL for EtCec3-a, 2661–10.38 µg/mL for EtDip). Stocks of the mycoplasma-free HepG2 cell line HB-8065 (ATCC) stored in liquid nitrogen were seeded at a density of 20,000 cells/well into 96-well microplates in 100 μL DMEM-F12 supplemented as above. After incubation overnight at 37 ± 1 °C in a 5% CO2 atmosphere, 100 μL of the test solution was added per well in six replicates. Ketoconazole was used as a positive control and PBS as a negative control. The plates were incubated for 24 h, as above, and the cell viability was assessed using the luminescent CellTiter-Glo ATP monitoring kit (Promega) to determine the quantity of ATP.
HepG2 cells and peptides were prepared as described above, and cell viability was assessed based on the ability of lysosomes to store the dye neutral red (Sigma–Aldrich, ST. Louis, MO, USA). The cells were incubated for 3 h with a neutral red solution, washed twice, and lysed. After complete lysis, the quantity of neutral red was determined by measuring the absorption at 540 nm while using a Tecan Genios Pro plate reader.

The subject of data set [2] is S. aureus ATCC 33592. The data set is classed as cell-based, Staphylococcus aureus. Particulars: ATCC 33592, 18 h. As to the method:
(§1) The strains that were used in this study (Table 2 and Table S1) were cultivated at 37 °C in cation-adjusted Mueller–Hinton broth (CAMB) in Erlenmeyer flasks, or on the same medium with agar in Petri dishes. Exceptionally, Mycobacterium smegmatis was cultivated at 37 °C in brain heart infusion (BHI) medium that was supplemented with 1% Tween-80 in Erlenmeyer flasks, or on the same medium lacking detergent but with agar in Petri dishes. Strains listed with Robert Koch Institute (RKI) strain numbers are clinical isolates from the RKI strain collection originating from hospitalized patients in Germany. The remaining strains originated from the Sanofi strain collection and they were originally purchased from the American Type Culture Collection or the German Collection of Microorganisms and Cell Cultures. Meropenem/colistin-resistant strains were maintained, as described above, with the appropriate antibiotic added at levels below the minimal inhibitory concentration (MIC).
(§2) The MIC values were determined in 384-well microtiter plates with an assay volume of 20 µL. Immediately before each assay, the cultures of test organisms (bacteria grown for 18 h, Candida albicans and M. smegmatis grown for 48 h) were diluted with the appropriate medium to a density of 1 × 10^6 cells/mL (C. albicans), 1 × 10^5 cells/mL (M. smegmatis) or 5 × 10^5 cells per mL (other species). […] We transferred 2-µL aliquots from this dilution series to new 384-well microtiter plates while using a CyBio-Well 384-channel automated pipettor (Analytic Jena, Jena, Germany) and added 18 µL of the diluted suspension of each test species using a Viafill reagent dispenser (Integra), thus reducing the final peptide concentration 10-fold to the range 1024–0.03125 µg/mL. […] The growth of M. smegmatis was measured using the BacTiter-Glo luminescence test system (Promega, Madison, WI, USA). The growth of the other species was determined by visual inspection of the microtiter plate and turbidimetry based on the optical density at 600 nm (OD600). The MIC was defined as the peptide concentration at which no bacterial growth was observed. We supplemented the test medium with either 150 mM NaCl or 1.25 mM CaCl2 to represent monovalent and divalent cations to simulate physiological conditions.

The subject of data set [3] is E. coli RKI 131/08. Description: microbe, parasite or virus in culture. Particulars: RKI 131/08, 18 h. The class given is cell-based, Escherichia coli. Here is the method: as §1, §2
Data set [4] deals with A. baumannii RKI 19/09. Description: microbe, parasite or virus in culture. The note with it: RKI 19/09, 18 h. The data set is classed as cell-based, Acinetobacter baumannii. Here is the method:
as §1, §2

In data set [5] the test system is K. pneumoniae RKI 93/10. Description: microbe, parasite or virus in culture. The class given is cell-based, Klebsiella pneumoniae. The note with it: RKI 93/10, 18 h. Here is the method: as §1, §2
In data set [6] the target is human ERG (hERG) potassium channel (Homo sapiens, UniProt Q12809). Description: cell-based. As to the method: The interaction of the peptides with the human ERG (hERG) potassium channel was analyzed using the automated patch-clamp method. Chinese hamster ovary (CHO) hERG Duo cells constitutively expressing hERG (B’SYS) were diluted to 8 × 10^6 cells/mL in Ex-Cell CHO medium (Sigma–Aldrich) containing 25 mM HEPES, 100 U/mL penicillin-streptomycin, and 0.004% soybean trypsin inhibitor. The peptides were diluted from a stock concentration of 10 mM in DMSO to final concentrations of 0.12, 0.37, 1.1, 3.3, 10, and 30 μM (0.5–124 µg/mL for […], 0.51–128 µg/mL for EtCec2-a, 0.49–122 µg/mL for EtCec3-a, 0.8–200 µg/mL for EtDip) in extracellular medium (150 mM NaCl, 4 mM KCl, 2 mM CaCl2, 1 mM MgCl2, 10 mM HEPES, 10 mM glucose) containing 0.06% Pluronic F-68 and 0.3% residual DMSO. The response of hERG to each peptide was assessed while using a QPatch HTX station and QPlates (Sophion/Biolin Scientific, Ballerup, Denmark) by recording the tail current following channel repolarization. Half-maximal inhibitory concentrations (IC50) were determined from a series of six concentrations applied to the cells in ascending order. Terfenadine citrate was used as a positive control and extracellular medium as a negative control.

The test system of data set [7] is Klebsiella pneumoniae DSM 30104. The data set is classed as cell-based. Particulars: DSM 30104, 18 h. As to the method: as §1, §2
In data set [8] the test system is Pseudomonas aeruginosa ATCC 27853. The class given is cell-based. The note with it: ATCC 27853, 18 h. As to the method: as §1, §2
The test system of data set [9] is Staphylococcus aureus ATCC 25923. The data set is classed as cell-based. The note with it: ATCC 25923, 18 h. As to the method: as §1, §2
Data set [10] deals with Acinetobacter baumannii ATCC 19606. The data set is classed as cell-based. Particulars: ATCC 19606, 18 h. As to the method: as §1, §2
The test system of data set [11] is Escherichia coli D31. The class given is cell-based. The note with it: D31, 18 h. Here is the method:
as §1, §2

Chain of human ERG (hERG) potassium channel (Q12809 whole entry): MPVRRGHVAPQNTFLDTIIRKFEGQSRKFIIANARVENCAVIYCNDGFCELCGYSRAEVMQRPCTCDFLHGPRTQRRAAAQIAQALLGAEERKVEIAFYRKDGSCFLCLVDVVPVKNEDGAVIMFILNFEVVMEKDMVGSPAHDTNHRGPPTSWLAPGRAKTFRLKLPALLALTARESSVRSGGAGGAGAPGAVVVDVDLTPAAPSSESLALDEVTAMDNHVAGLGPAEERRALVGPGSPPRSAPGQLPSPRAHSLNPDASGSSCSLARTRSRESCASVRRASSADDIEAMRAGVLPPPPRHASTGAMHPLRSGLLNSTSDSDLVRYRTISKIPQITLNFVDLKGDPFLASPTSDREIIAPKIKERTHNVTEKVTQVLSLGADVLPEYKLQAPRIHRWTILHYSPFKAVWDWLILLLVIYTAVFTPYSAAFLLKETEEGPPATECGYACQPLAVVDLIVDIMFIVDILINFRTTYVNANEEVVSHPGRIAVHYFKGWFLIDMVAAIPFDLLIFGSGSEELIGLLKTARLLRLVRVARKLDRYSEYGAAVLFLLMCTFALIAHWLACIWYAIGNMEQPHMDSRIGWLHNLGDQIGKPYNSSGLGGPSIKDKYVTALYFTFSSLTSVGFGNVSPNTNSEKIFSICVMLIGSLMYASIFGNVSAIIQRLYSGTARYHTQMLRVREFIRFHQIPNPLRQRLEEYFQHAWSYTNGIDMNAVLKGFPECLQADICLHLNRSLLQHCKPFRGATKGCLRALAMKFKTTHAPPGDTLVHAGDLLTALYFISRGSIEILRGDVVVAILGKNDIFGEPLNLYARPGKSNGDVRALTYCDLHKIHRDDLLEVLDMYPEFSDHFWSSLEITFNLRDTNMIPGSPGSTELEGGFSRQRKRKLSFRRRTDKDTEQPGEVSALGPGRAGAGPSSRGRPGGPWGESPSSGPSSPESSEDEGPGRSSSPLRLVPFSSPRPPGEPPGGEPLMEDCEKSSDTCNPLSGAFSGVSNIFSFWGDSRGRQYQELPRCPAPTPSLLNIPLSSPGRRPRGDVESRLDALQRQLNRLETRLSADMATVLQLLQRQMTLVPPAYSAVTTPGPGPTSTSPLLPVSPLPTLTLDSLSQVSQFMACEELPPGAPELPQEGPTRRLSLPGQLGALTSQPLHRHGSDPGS

The term IC50 denotes the concentration that gives 50% inhibition. A lower IC50 goes with inhibition by little substance. Regarding “GFLKKVGKKLEGASDLTRDATIQTIAVAQAAANVAATAKQ-NH2 [EtCec3-NH2]”, the NOEC in data set [1] is listed as greater than 1622 µg/mL. The MIC in [2], in [3], in [4], in [5], in [7] and in data set [8] was greater than 1024 µg/mL throughout. Besides, the MIC in data set [9] is recorded as greater than 1024 µg/mL; in [10] it was greater than 1024 µg/mL; in data set [11], 128 µg/mL. In data set [6], this substance had a concentration for half-maximal inhibition (IC50) greater than 30 µM.
